Laboratory results as given in patent US20260144815A1, “BLOOD COAGULATION TIME SHORTENING AGENT FOR BLOOD SPECIMEN DEFICIENT IN COAGULATION FACTOR XII” (SEKISUI MEDICAL CO., LTD., priority 2022, published 2026).

System: FXII-deficient specimens
Assay: Test 2: APTT coagulation time measurement of FXII-deficient specimens, zinc chloride basic prescription
Assay type: biochemical, human
Settings: metal salt used instead of zinc chloride in combination with the polymer
Excerpt: The following specimens were used: • FXII-deficient specimens (specimens derived from FXII-deficient patients, N=3).
The prescription was the same as that in the test 1 except that copper sulfate pentahydrate in the first reagent (R1) was changed to zinc chloride.
In the control, LIPIDURE (R) was not added.
Test reagents 5-1 to 5-3: zinc chloride in R1 of the basic prescription was changed to the metal salt compound shown in Table 5, and LIPIDURE (R)-BL205 was further added. As the control, the test reagent 4-1 was used.
R1 and R2 were prepared by the same procedure as in the test 1, the coagulation time (APTT) was measured, and the variation rate (%) of APTT with the test reagent with respect to the control was determined.

| Structure (SMILES) | coagulation time of FXII-deficient specimens |
| --- | --- |
| O.O.O.O.[Cl][Mn][Cl] [manganese (II) chloride tetrahydrate] | further shortened |
| O.O.O.O.[Cl][In]([Cl])[Cl] [indium (III) chloride tetrahydrate] | further shortened |
